Test results from patent US20230212549A1, “COMPOUNDS COMPRISING A […] LIGAND AND USE THEREOF” (priority 2021, published 2023).
pIC50, pKd: −log10 of the molar value. Blank lines part the entries; values can stand above or below the molecule they belong to. Numbered stars: 1 amine (or outer) side, 2 acyl side, 3 side chain; on linkers, the order of the positions; unused ones are H or OH. Bridge positions count the residues as written; N and C are the ends. Square brackets hold non-standard residues; d marks the D form. Peptide text beside a SMILES is read from it. mXylylene = c1cc(C[*:1])cc(C[*:2])c1; NMeF = CN[C@@H](Cc1ccccc1)C(=O)O; Tic = O=C(O)[C@@H]1Cc2ccccc2CN1

Tests used:
[1] = molecular target: T1, FAP-expressing human WI-38 fibroblasts (Homo sapiens, UniProt Q12884); experiment: Competitive FACS binding assay
T1 construct: FAP-expressing human WI-38 fibroblasts (ECACC) were cultured in EMEM; host or cells: WI-38 human fibroblasts
T1 sequence (Q12884 whole entry): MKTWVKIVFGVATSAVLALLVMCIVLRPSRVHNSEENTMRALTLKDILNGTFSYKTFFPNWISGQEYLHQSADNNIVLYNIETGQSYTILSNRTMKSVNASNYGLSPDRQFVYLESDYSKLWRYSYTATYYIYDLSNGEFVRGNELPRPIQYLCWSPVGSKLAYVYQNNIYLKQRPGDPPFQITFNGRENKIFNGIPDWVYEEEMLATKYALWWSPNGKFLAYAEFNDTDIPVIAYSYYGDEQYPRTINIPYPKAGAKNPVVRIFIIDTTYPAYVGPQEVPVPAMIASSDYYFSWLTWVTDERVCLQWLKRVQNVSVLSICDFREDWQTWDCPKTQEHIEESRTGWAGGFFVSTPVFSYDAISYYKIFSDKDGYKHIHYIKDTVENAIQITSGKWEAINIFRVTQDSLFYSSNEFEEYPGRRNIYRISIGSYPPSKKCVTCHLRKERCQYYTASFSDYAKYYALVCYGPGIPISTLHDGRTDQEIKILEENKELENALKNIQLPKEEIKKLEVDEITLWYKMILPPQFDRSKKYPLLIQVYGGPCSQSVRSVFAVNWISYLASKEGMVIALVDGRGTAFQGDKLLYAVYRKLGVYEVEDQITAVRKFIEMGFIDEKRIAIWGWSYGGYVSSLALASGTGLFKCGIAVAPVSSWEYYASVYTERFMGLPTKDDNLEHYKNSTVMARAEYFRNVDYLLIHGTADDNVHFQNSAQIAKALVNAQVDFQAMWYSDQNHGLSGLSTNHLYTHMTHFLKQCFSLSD
Description: Cells were analyzed in an Attune NxT flow cytometer. […] […].
Cells were analyzed in an Attune NxT flow cytometer. […]

[2] = Plasma stability assay, mouse plasma; assay type: in vitro ADME; conditions: mouse, plasma; 4 h incubation, 37° C.; read-out: % intact compound remaining after incubation, Mouse plasma
Human recombinant FAP [3] = molecular target: T2, Human recombinant FAP (Homo sapiens, UniProt Q12884); experiment: FRET-based FAP protease activity assay; assay type: biochemical; design: purchased R&D systems 3715-SE
T2 sequence (Q12884 whole entry): as above

in vivo = conditions: swiss nude, mouse, iv
Human recombinant FAP [4] = molecular target: T2, Human recombinant FAP; experiment: Surface plasmon resonance (Biacore) assay; assay type: binding
[5] = Radiochemical purity by HPLC of ^99mTc-labeled compounds; assay type: physicochemical; conditions: 99Tc-labeled compounds
Description: 100-500 MBq of ^99mTcO4 (in saline) were mixed with 11 μl of 0.5 M phosphate buffer pH 11.5-12.0 and 1.1 μl of 0.1 M trisodium citrate per 100 μl radionuclide solution. […] The mixture was incubated for 30 min at 25-50′° C. At the end of the incubation time, the mixture was neutralized with 3.0 μl 1 M HCl per 10 μl phosphate buffer and TWEEN-20 was added at a final concentration of 0.100.

HEK-FAP tumor [6] = conditions: ^99mTc-labelled, 1-6 h post injection; compared to 3BP-4219 and 3BP-4221
HEK-FAP tumor [7] = conditions: ^68Ga-labeled, PET/CT
[8] = pIC50 Category (activity), Recombinant human FAP

SMILES: CCCC[C@H](NC(=O)CCC(=O)NCCCOCCOCCOCCCNC(=O)CN1CCN(C(=O)C(CNCCN)CNCCN)CC1)C(=O)N[C@H]1CSCc2cccc(c2)CSCC(C(=O)O)NC(=O)[C@H](Cc2ccccc2)NC(=O)[C@H](CCC(N)=O)NC(=O)[C@H]([C@@H](C)O)NC(=O)[C@@H]2CCCN2C(=O)[C@@H]2CCCN2C1=O (stereo partly drawn) [3BP-4541, N4Ac-PPAc-Ttds-Nle-[Cys(3MeBn)-Pro-Pro-Thr-Gln-Phe-Cys]-OH]
tissue uptake at 1 h (in vivo; blood pool surrogate (BPS)): 0.48 %ID/g
tissue uptake at 3 h (in vivo; blood pool surrogate (BPS)): 0.2 %ID/g
tissue uptake at 6 h (in vivo; blood pool surrogate (BPS)): 0.06 %ID/g
tissue uptake at 1 h (in vivo; kidneys): 4.02 %ID/g
tissue uptake at 3 h (in vivo; kidneys): 2.41 %ID/g
tissue uptake at 6 h (in vivo; kidneys): 1.01 %ID/g
tissue uptake at 1 h (in vivo; tumor): 8.81 %ID/g
tissue uptake at 3 h (in vivo; tumor): 9.76 %ID/g
tissue uptake at 6 h (in vivo; tumor): 7.48 %ID/g
pIC50 [1]: 7.10 to 8.00
pKd (Human recombinant FAP [4]): 7.10 to 8.00
HPLC Area % appr. 4 h post end of synthesis [5]: 89.7%
HPLC Area % at end of synthesis [5]: 95.8%
pIC50 (Human recombinant FAP [3]; [8]): 7.10 to 8.00
uptake in healthy tissues (biodistribution) (HEK-FAP tumor [6]): decreased uptake in healthy tissues over time

SMILES: CSCC[C@H](NC(C)=O)C(=O)N[C@H]1CSCc2cccc(c2)CSC[C@@H](C(=O)N[C@@H](CC(=O)O)C(=O)N[C@@H](Cc2c[nH]cn2)C(=O)N2Cc3ccccc3C[C@H]2C(=O)N[C@@H](CCCNC(=N)N)C(=O)N[C@@H](CC(=O)O)C(N)=O)NC(=O)[C@H](Cc2ccccc2)NC(=O)[C@H](CCC(=O)O)NC(=O)[C@H]([C@@H](C)O)NC(=O)[C@@H]2CCCN2C(=O)[C@@H]2CCCN2C1=O [3BP-3189, Ac-Met-[Cys(3MeBn)-Pro-Pro-Thr-Glu-Phe-Cys]-Asp-His-Tic-Arg-Asp-NH2] (Ac-MCPPTEFCDH[Tic]RD-NH2; linker 2-8 via mXylylene)
remaining at 4 h, 9.8 µM [2]: 100%

SMILES: CCCC[C@H](NC(=O)CCC(=O)NCCCOCCOCCOCCCNC(=O)CCC(C(=O)O)N1CCN(CC(=O)O)CCN(CC(=O)O)CC1)C(=O)N[C@H]1CSCc2cccc(c2)CSCC(C(=O)O)NC(=O)[C@H](Cc2ccccc2)NC(=O)[C@H](CCC(N)=O)NC(=O)[C@H]([C@@H](C)O)NC(=O)[C@@H]2CCCN2C(=O)[C@@H]2CCCN2C1=O (stereo partly drawn) [3BP-4713, NODAGA-Ttds-Nle-[Cys(3MeBn)-Pro-Pro-Thr-Gln-Phe-Cys]-OH]
pIC50 [1]: 7.10 to 8.00
uptake BPS 0.25 h (HEK-FAP tumor [7]; BPS (blood pool surrogate), 0.25 h post tracer injection): 2.27 % ID/g
uptake BPS 1 h (HEK-FAP tumor [7]; BPS (blood pool surrogate), 1 h post tracer injection): 0.77 % ID/g
uptake BPS 3 h (HEK-FAP tumor [7]; BPS (blood pool surrogate), 3 h post tracer injection): 0.19 % ID/g
uptake Tumor 0.25 h (HEK-FAP tumor [7]; HEK-FAP tumor, 0.25 h post tracer injection): 3.46 % ID/g
uptake Tumor 1 h (HEK-FAP tumor [7]; HEK-FAP tumor, 1 h post tracer injection): 3.90 % ID/g
uptake Tumor 3 h (HEK-FAP tumor [7]; HEK-FAP tumor, 3 h post tracer injection): 3.21 % ID/g
uptake Kidneys 0.25 h (HEK-FAP tumor [7]; kidneys, 0.25 h post tracer injection): 9.05 % ID/g
uptake Kidneys 1 h (HEK-FAP tumor [7]; kidneys, 1 h post tracer injection): 2.50 % ID/g
uptake Kidneys 3 h (HEK-FAP tumor [7]; kidneys, 3 h post tracer injection): 0.82 % ID/g
pIC50 (Human recombinant FAP [3]; [8]): 7.10 to 8.00

Now from value to molecule:

pIC50 [1]: > 8.00
remaining at 4 h, 9.8 µM [2]: 97%
pIC50 (Human recombinant FAP [3]; pIC50 Category (Activity), FRET-based FAP protease activity assay, recombinant human FAP, 37° C.): > 8.00
SMILES: CSCC[C@H](NC(C)=O)C(=O)N[C@H]1CSCc2cccc(c2)CSC[C@@H](C(=O)N[C@@H](CC(=O)O)C(=O)N[C@@H](Cc2c[nH]cn2)C(=O)N(C)[C@@H](Cc2ccccc2)C(=O)N[C@@H](CCCNC(=N)N)C(=O)N[C@@H](CC(=O)O)C(N)=O)NC(=O)[C@H](Cc2ccccc2)NC(=O)[C@H](CCC(=O)O)NC(=O)[C@H]([C@@H](C)O)NC(=O)[C@@H]2CCCN2C(=O)[C@@H]2CCCN2C1=O [3BP-3188, Ac-Met-[Cys(3MeBn)-Pro-Pro-Thr-Glu-Phe-Cys]-Asp-His-Nmf-Arg-Asp-NH2] (Ac-MCPPTEFCDH[NMeF]RD-NH2; linker 2-8 via mXylylene)

remaining at 4 h, 9.8 µM [2]: 100%
SMILES: CSCC[C@@H](NC(C)=O)C(=O)N[C@H]1CSCc2cccc(c2)CSC[C@@H](C(=O)N[C@@H](CC(=O)O)C(=O)N[C@@H](Cc2c[nH]cn2)C(=O)N[C@@H](Cc2ccccc2)C(=O)N[C@@H](CCCNC(=N)N)C(=O)N[C@@H](CC(=O)O)C(N)=O)NC(=O)[C@H](Cc2ccccc2)NC(=O)[C@H](CCC(=O)O)NC(=O)[C@H]([C@@H](C)O)NC(=O)[C@@H]2CCCN2C(=O)[C@@H]2CCCN2C1=O [3BP-3187, Ac-met-[Cys(3MeBn)-Pro-Pro-Thr-Glu-Phe-Cys]-Asp-His-Phe-Arg-Asp-NH2] (Ac-[dM]CPPTEFCDHFRD-NH2; linker 2-8 via mXylylene)
